How the values were obtained:
[1] = tested on: recombinant hispidin hydroxylase from Neonothopanus nambi; assay: HPLC analysis of hydroxylation by recombinant hispidin hydroxylase; assay type: biochemical; conditions: 0.2 μM substrate, 1 mM NADPH, 30 minutes
Method: The isolated recombinant hispidin hydroxylase from Neonothopanus nambi, obtained according to Example 4, was added to reaction mixtures comprising 1 mM of NADPH and 0.2 μM of hispidin, (E)-4-hydroxy-6-styryl-2H-pyran-2-one or (E)-4-hydroxy-6-(4-hydroxystyryl)-2H-pyran-2-one in 100 μl of the buffer (0.2 M of Na-phosphate buffer, 0.5 M of Na2SO4, 0.1% dodecylmaltoside (DDM) pH 8.0). In 30 minutes, the reaction mixture was analyzed by HPLC using synthetic luciferins as standards.

Danio rerio larvae = assay: Bioluminescence of transgenic Danio rerio larvae after hispidin injection; assay type: in vivo; conditions: hispidin solution intravenously injected
Description: Transgenic fish Danio redo, comprising gene of Neonothopanus nambi hispidin hydroxylase were created according to the technique described in [Hisano et al., Sci Rep., 2015, 5:8841]. The technique includes expression of guide RNA and Cas9 nuclease for making a breakpoint in the region homologous to the guide RNA sequence. For the purpose of development of transgenic animals there were ordered synthetic DNA fragments comprising guide RNA sequences from pX330 plasmid, Addgene #42230 and mRNA of Cas9 nuclease under control of bacteriophage polymerase T7 promoter. The obtained fragments were used for transcription in vitro by means of reagents from MAXIscript T7 kit (Life Technologies, USA), and synthesized RNA was purified by means of DNA isolation kit (Evrogen, Russia).
Coding sequence of Neonothopanus nambi hispidin hydroxylase floxed by 50-nucleotide sequences from krtt1c19e Danio rerio gene, described in [Hisano et al., Sci Rep., 2015, 5:8841], was obtained synthetically and cloned into pEGFP/C1 plasmid base comprising pUC origin and kanamycin resistance cassette.
Hispidin solution was intravenously injected into Danio rerio larvae for recording bioluminescent signal according to the technique described in [Cosentino et al., J Vis Exp. 2010; (42): 2079]. Bioluminescence was recorded by means of IVIS Spectrum In Vivo Imaging System (Perkin Elmer). […]

[2] = tested on: hispidin hydroxylase and luciferase fusion protein; assay: Bioluminescence of HEK293T cells expressing hispidin hydroxylase and luciferase fusion protein; assay type: cell-based, Neonothopanus nambi; conditions: 24 hours after transfection, 1 million of cells in 0.5 ml PBS; hispidin 10 μg per 1 million of cells
Description: Humanized DNA sequences coding hispidin-hydroxylase and luciferase of Neonothopanus nambi, obtained according to Example 2, were operatively cross-linked to each other by flexible short peptide linker with amino acid sequence GGSGGSGGS (SEQ ID NOs:115). Nucleotide and amino acid sequences of the obtained fused protein are shown in SEQ ID NO 101 and 102. Nucleic acid coding fused protein was cloned into pEGFP-N1 vector (Clontech, USA) instead of EGFP gene under Cytomegaloviral promoter control. The obtained structure was transfected into HEK293T cells. Analogous vectors, comprising individual genes of hispidin hydroxylase and luciferase, were also co-transfected. Transfection was performed by transfection agent FuGENE HD (Promega, USA) according to the manufacturer's protocol. 24 hours after transfection 1 million of cells were resuspended in 0.5 ml of PBS, and luminescence without adding hispidin and with addition of hispidin (10 μg per 1 million of cells) was recorded by luminometer.

For O=c1cc(O)cc(/C=C/c2ccc(O)c(O)c2)o1 [hispidin, (E)-6-(3,4-dihydroxystyryl)-4-hydroxy-2H-pyran-2-one], the “HPLC detection of hydroxylated product” value [1] was “occurrence of peaks corresponding to 3d position hydroxylated derivatives”, the “bioluminescence intensity exceeding the signal from wild-type fish” value (Danio rerio larvae) was “minimum by two orders of magnitude” and the “cell luminescence on addition” value [2] was “caused cell luminescence in green spectrum”.

Source: patent US20240117385A1, “ENZYMES OF LUCIFERIN BIOSYNTHESIS AND USE THEREOF” (LIGHT BIO, INC., priority 2018, published 2024)
